Source: patent US4395402A, “Analgesic agent” (Zaidan Hojin Biseibutsu Kagaku Kankyu Kai, priority 1980, dated 1983)

Columns and labels:
enkephalinase = molecular target: T1, enkephalinase (Rattus norvegicus, UniProt P07861); assay: Inhibitory activity against enkephalinase (Test 1); format: biochemical; conditions: for Inhibitory activity to enkephalinase ID50: partially purified enkephalinase from rat brain corpus striatum, substrate methionine-enkephaline, 37° C., 1 hour, HPLC of Tyr-Gly-Gly
T1 construct: homogenizing corpus striatum of rat brain and by partial purification of the brain homogenate; from tissue; host or cells: corpus striatum of rat brain
T1 sequence (P07861 2-750 limits assumed): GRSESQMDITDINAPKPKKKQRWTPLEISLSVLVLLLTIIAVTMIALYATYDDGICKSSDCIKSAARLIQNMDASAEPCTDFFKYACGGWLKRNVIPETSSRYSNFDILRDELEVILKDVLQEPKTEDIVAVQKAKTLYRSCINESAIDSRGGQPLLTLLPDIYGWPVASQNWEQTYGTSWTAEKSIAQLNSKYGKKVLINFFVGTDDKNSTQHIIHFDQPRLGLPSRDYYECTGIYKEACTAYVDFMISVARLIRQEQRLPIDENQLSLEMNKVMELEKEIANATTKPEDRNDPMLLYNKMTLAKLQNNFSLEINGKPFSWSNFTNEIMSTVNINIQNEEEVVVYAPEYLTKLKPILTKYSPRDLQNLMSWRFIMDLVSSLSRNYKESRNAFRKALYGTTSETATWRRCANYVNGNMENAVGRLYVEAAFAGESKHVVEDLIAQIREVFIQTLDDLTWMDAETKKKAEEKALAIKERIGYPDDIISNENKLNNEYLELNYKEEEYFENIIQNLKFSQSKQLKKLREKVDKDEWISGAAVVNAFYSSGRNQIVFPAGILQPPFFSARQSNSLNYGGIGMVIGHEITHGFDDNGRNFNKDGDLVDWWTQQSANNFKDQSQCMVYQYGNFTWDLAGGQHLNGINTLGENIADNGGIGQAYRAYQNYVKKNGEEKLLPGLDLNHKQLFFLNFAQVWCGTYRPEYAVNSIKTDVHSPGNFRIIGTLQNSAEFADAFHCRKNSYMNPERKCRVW
Method: To the solution of the test compound so prepared was added the enkephalinase, followed by incubation for five minutes at ambient temperature and further by addition of methionine-enkephaline as the substrate. The admixture so obtained was incubated at 37° C. for 1 hour and then subjected to a high-performance liquid chromatography in such a manner that the Tyr-Gly-GLy (a fragment of the methionine-enkephaline) formed by the enzymatic degradation of methionine-enkephaline was isolated in some fractions of the eluate and the quantity of Tyr-Gly-GLy was determined by an electro-chemically analysing detector.

Wistar rats = assay: Enhancement of morphine analgesia, tail-flick latency (Test 2); format: in vivo, rat
Method: To Wistar rats (10 week aged, male, body weight 250-300 g) was given intraperitoneally morphine at a dose of 0.5 mg/kg, and these rats receiving the morphine were classified into the group of morphine analgesia-effective rats and the group of morphine analgesia-non-effectiverats according to the classification method described in the "Showa Igakukai Zasshi" Vol. 39, No. 5, pages 537-542 (1979). […] The effect of analgesia was evaluated according to the method of tail-flick latency of rats described in the "Showa Igakukai Zasshi" Vol. 39, No. 5, pages 537-542 (1979). The evaluation of pain threshold of rats according to the tail-flick latency method was made as follows: Radiant heat stimulus was applied to the region of the rat tail which positioned 1 cm away from the tail tip and which had been colored black with a black-dye, and the time of latency involved in the tail flick, namely the period of time lapsing between the time of application of the heat stimulus and the time of the reflective flick response of the tail was measured. The quantity of the heat applied was so controlled that the average time of latency of the tail-flick response appearing in the control group of rats (receiving not the test compound but the morphine) was about 2.0 seconds. The tests were accomplished as long as the maximum value for the tail-flick latency was 7.0 seconds or less, as otherwise the skin of the rat tail could be damaged by the application of heat. In other words, if the time for the tail-flick latency was longer than 7.0 seconds, the tests were stopped to prevent the damage of the rat tail. The radiant heat stimulus was repeated 5 times for each test rat at an interval of 15 minutes and the times of latency in the flick response of the tail measured in each test were averaged. In each test, 5 rats were used.
The difference in the time of the tail-flick latency between the test rats (receiving 250 mg/kg of the test compound plus 0.5 mg/kg of morphine) and the control rats (receiving 0.5 mg/kg of morphine alone) was calculated, and the effect for enhancement of morphine analgesia was estimated in term of the value of percentages which were calculated by the following equation: [formula]

ICR-strain mice = conditions: 2 g/kg intraperitoneally, 6 mice per group
rats = assay: Analgesic activity of test compound administered alone intracisternally, tail-flick latency (Test 3); format: in vivo, rat; conditions: for Analgesic activity (%) (increase in tail-flick latency): no morphine
Method: Analgesic activity was evaluated in term of the value of percentages of increase in the tail-flick latency of the test rats receiving the test compound, as compared to the control rats receiving no test compound.
The test as above was repeated with 2 mcg/kg of naloxone (a specific antogonizer to morphine) being intraperitoneally given into the test rats simultaneously to the intracisternal administration of the bestatin-related compound under test.

[1] = 250 mg/kg test compound i.p. + 0.5 mg/kg morphine i.p., morphine analgesia-non-effective rats, versus 0.5 mg/kg morphine alone

| Structure (SMILES) | Inhibitory activity to enkephalinase ID50 (enkephalinase) [milimol] | Analgesia enhancement (%) (Wistar rats; [1]) | further results |
| --- | --- | --- | --- |
| CC(C)C[C@H](NC(=O)[C@@H](O)[C@H](N)Cc1ccccc1)C(=O)O [Compound 1, (2S,3R)-3-amino-2-hydroxy-4-phenylbutanoyl-(S)-leucine] | 0.62 | 19.5 | – |
| CC(C)C[C@H](NC(=O)[C@H](O)[C@H](N)Cc1ccccc1)C(=O)O [Compound 2, (2S,3R)-3-amino-2-hydroxy-4-phenylbutanoyl-(R)-leucine] | 2.40 | 24.9 | – |
| N[C@H](Cc1ccccc1)[C@H](O)C(=O)N[C@H](CCC(=O)O)C(=O)O [Compound 3, (2S,3R)-3-amino-2-hydroxy-4-phenylbutanoyl-(R)-glutamic] | 30.86 | – | – |
| C[C@H](NC(=O)[C@H](O)[C@H](N)Cc1ccccc1)C(=O)O [Compound 4, (2S,3R)-3-amino-2-hydroxy-4-phenylbutanoyl-(R)-alanine] | 5.98 | – | Acute toxicity (survival) (ICR-strain mice): all the mice receiving 2 g/kg of AHPA-D-Ala survived |
| N=C(N)NCCC[C@H](NC(=O)[C@H](O)[C@H](N)Cc1ccccc1)C(=O)O [Compound 5, (2S,3R)-3-amino-2-hydroxy-4-phenylbutanoyl-(R)-arginine] | 0.063 | 13.6 | Activity to inhibit enkephalinase in vitro (in words) (enkephalinase; summary statement): high activity to inhibit enkephalinase; Enhancement of the analgesic activity of morphine (in words) (Wistar rats; summary statement): not significantly effective; Analgesic activity (%) (increase in tail-flick latency) (rats; dose 60 mcg intracisternally): 134.0%; Analgesic activity when administered intracisternally in the brain (in words) (rats; summary statement): high analgesic activity |
| CSCC[C@H](NC(=O)[C@H](O)[C@H](N)Cc1ccccc1)C(=O)O [Compound 6, (2S,3R)-3-amino-2-hydroxy-4-phenylbutanoyl-(R)-methionine] | 2.54 | 14.7 | – |
| CSCC[C@H](NC(=O)[C@@H](O)[C@H](N)Cc1ccccc1)C(=O)O [Compound 7, (2S,3R)-3-amino-2-hydroxy-4-phenylbutanoyl-(S)-methionine] | 2.78 | 10.5 | – |
| CC(C)C[C@H](NC(=O)[C@@H](O)[C@H](N)Cc1ccc(O)cc1)C(=O)O [Compound 8, (2S,3R)-3-amino-2-hydroxy-4-p-hydroxyphenylbutanoyl-(S)-leucine] | 0.37 | 34.5 | Analgesic activity (%) (increase in tail-flick latency) (rats; dose 500 mcg intracisternally): 47.0% |
| CC(C)C[C@H](NC(=O)[C@H](O)[C@H](N)Cc1ccc(O)cc1)C(=O)O [Compound 9, (2S,3R)-3-amino-2-hydroxy-4-p-hydroxyphenylbutanoyl-(R)-leucine] | 20.68 | 23.1 | – |
| N[C@H](Cc1ccc(O)cc1)[C@H](O)C(=O)N[C@H](Cc1ccccc1)C(=O)O [Compound 10, (2S,3R)-3-amino-2-hydroxy-4-p-hydroxyphenylbutanoyl-(R)-phenylalanine] | – | 27.0 | – |
| CC(C)C[C@H](NC(=O)[C@@H](O)[C@H](N)Cc1ccccc1)C(=O)N[C@H](CC(C)C)C(=O)O [Compound 11, (2S,3R)-3-amino-2-hydroxy-4-phenylbutanoyl-(S)-leucyl-(R)-leucine] | 0.95 | 5.2 | – |
| N[C@H](Cc1ccccc1)[C@H](O)C(=O)NCCC(=O)O [Compound 12, (2S,3R)-3-amino-2-hydroxy-4-phenylbutanoyl-β-alanine] | – | 12.0 | – |
| NC(=O)C[C@H](NC(=O)[C@H](O)[C@H](N)Cc1ccccc1)C(=O)O [Compound 13, (2S,3R)-3-amino-2-hydroxy-4-phenylbutanoyl-(R)-asparagine] | 3.12 | – | – |
| N[C@H](Cc1ccccc1)[C@H](O)C(=O)NCC(=O)O [Compound 14, (2S,3R)-3-amino-2-hydroxy-4-phenylbutanoyl-glycine] | – | 19.1 | – |
| N[C@H](Cc1ccccc1)[C@H](O)C(=O)O [Compound 15, (2S,3R)-3-amino-2-hydroxy-4-phenylbutanoic acid] | – | 14.1 | – |
| CN1CC[C@]23c4c5ccc(O)c4O[C@H]2[C@@H](O)C=C[C@H]3[C@H]1C5 [Morphine, reference compound] | – | – | Analgesia enhancement (%) (Wistar rats; comparative: morphine 0.5 mg/kg alone (control reference)): 0%; Analgesia enhancement (%) (Wistar rats; comparative: morphine 2 mg/kg alone): 28.4%; Analgesia enhancement (%) (Wistar rats; comparative: morphine 3 mg/kg alone): 35.1% |
